Reference: US10376520B2, “Methods for the treatment of cardiovascular disorders” (Galapagos NV, priority 2015, dated 2019)

System: RA patients
Test: Atherogenic index, Study 1 (RA patients, add-on to MTX)
Format: in vivo, human
Conditions: for Atherogenic index Mean CFB - 24 weeks results / Atherogenic index Mean percentage CFB - 24 weeks results / Atherogenic index Median CFB - 24 weeks results: 200 mg q.d. continued over 24 weeks
Description: As used herein, the term ‘atherogenic index’ refers to
Double-blind, placebo-controlled add on study in subjects with moderately to severely active RA who have an inadequate response to methotrexate (MTX) (oral or parenteral).
Compound 1 (dosed as a [Compound 1:HCl:3H2O]) is dosed for twelve weeks once daily (q.d.) (50 mg, 100 mg or 200 mg) or twice daily (b.i.d.) (25 mg, 50 mg or 100 mg); or placebo.
At Week 12, the subjects on placebo who have not achieved 20% improvement in swollen joint count (SJC66) and tender joint count (TJC68) are re-randomized automatically to receive Compound 1 (dosed as a [Compound 1:HCl:3H2O]) either at 100 mg q.d. or 50 mg b.i.d. doses in a blinded fashion; subjects on 50 mg q.d. who have not achieved 20% improvement in SJC66 and TJC68 will be assigned to 100 mg q.d. and subjects on 25 mg b.i.d. that have not achieved a 20% improvement in SJC66 and TJC68 will be assigned to 50 mg b.i.d. Subjects who switch treatment at week 12 are handled as if they discontinued at week 12 for the purpose of statistical analysis, whereas subjects in the other groups will maintain their randomized treatment until Week 24.
The atherogenic index has been identified to be a good predictor of cardiovascular disorders risks and is calculated as follows: […]

[1] = 2 × 25 mg (b.i.d. group), week 1
[2] = 2 × 25 mg (b.i.d. group), week 2
[3] = 2 × 25 mg (b.i.d. group), week 4
[4] = 2 × 25 mg (b.i.d. group), week 8
[5] = 2 × 25 mg (b.i.d. group), week 12
[6] = 2 × 50 mg (b.i.d. group), week 1
[7] = 2 × 50 mg (b.i.d. group), week 2
[8] = 2 × 50 mg (b.i.d. group), week 4
[9] = 2 × 50 mg (b.i.d. group), week 8
[10] = 2 × 50 mg (b.i.d. group), week 12
[11] = 2 × 100 mg (b.i.d. group), week 1

Compound: O=C(Nc1nc2cccc(-c3ccc(CN4CCS(=O)(=O)CC4)cc3)n2n1)C1CC1 [Compound 1, cyclopropanecarboxylic acid {5-[4-(1,1-dioxo-thiomorpholin-4-ylmethyl)-phenyl]-[1,2,4]triazolo[1,5-a]pyridin-2yl}-amide]
- Atherogenic index Median CFB - 12 weeks results (100 mg q.d., week 12): -0.10 mmol/L
- Atherogenic index Mean CFB - 24 weeks results (week 1): -0.17 mmol/L
- Atherogenic index Mean percentage CFB - 24 weeks results (week 1): −2.63%
- Atherogenic index Median CFB - 24 weeks results (week 1): -0.10 mmol/L
- Atherogenic index Mean CFB - 24 weeks results (week 2): -0.35 mmol/L
- Atherogenic index Mean percentage CFB - 24 weeks results (week 2): −7.45%
- Atherogenic index Median CFB - 24 weeks results (week 2): -0.25 mmol/L
- Atherogenic index Mean CFB - 24 weeks results (week 4): -0.37 mmol/L
- Atherogenic index Mean percentage CFB - 24 weeks results (week 4): −7.97%
- Atherogenic index Median CFB - 24 weeks results (week 4): -0.30 mmol/L
- Atherogenic index Mean CFB - 24 weeks results (week 8): -0.36 mmol/L
- Atherogenic index Mean percentage CFB - 24 weeks results (week 8): −7.92%
- Atherogenic index Median CFB - 24 weeks results (week 8): -0.30 mmol/L
- Atherogenic index Mean CFB - 24 weeks results (week 12): -0.35 mmol/L
- Atherogenic index Mean percentage CFB - 24 weeks results (week 12): −6.85%
- Atherogenic index Median CFB - 24 weeks results (week 12): -0.30 mmol/L
- Atherogenic index Mean CFB - 24 weeks results (week 16): -0.40 mmol/L
- Atherogenic index Mean percentage CFB - 24 weeks results (week 16): −8.14%
- Atherogenic index Median CFB - 24 weeks results (week 16): -0.40 mmol/L
- Atherogenic index Mean CFB - 24 weeks results (week 20): -0.48 mmol/L
- Atherogenic index Mean percentage CFB - 24 weeks results (week 20): −8.84%
- Atherogenic index Median CFB - 24 weeks results (week 20): -0.40 mmol/L
- Atherogenic index Mean CFB - 24 weeks results (week 24): -0.34 mmol/L
- Atherogenic index Mean percentage CFB - 24 weeks results (week 24): −6.14%
- Atherogenic index Median CFB - 24 weeks results (week 24): -0.30 mmol/L
- Atherogenic index Mean CFB (200 mg q.d., week 1): -0.17 mmol/L
- Atherogenic index Mean percentage CFB - 12 weeks results (200 mg q.d., week 1): −3%
- Atherogenic index Median CFB - 12 weeks results (200 mg q.d., week 1): -0.10 mmol/L
- Atherogenic index Mean CFB (200 mg q.d., week 2): -0.35 mmol/L
- Atherogenic index Mean percentage CFB - 12 weeks results (200 mg q.d., week 2): −7%
- Atherogenic index Median CFB - 12 weeks results (200 mg q.d., week 2): -0.25 mmol/L
- Atherogenic index Mean CFB (200 mg q.d., week 4): -0.37 mmol/L
- Atherogenic index Mean percentage CFB - 12 weeks results (200 mg q.d., week 4): −8%
- Atherogenic index Median CFB - 12 weeks results (200 mg q.d., week 4): -0.30 mmol/L
- Atherogenic index Mean CFB (200 mg q.d., week 8): -0.36 mmol/L
- Atherogenic index Mean percentage CFB - 12 weeks results (200 mg q.d., week 8): −8%
- Atherogenic index Median CFB - 12 weeks results (200 mg q.d., week 8): -0.30 mmol/L
- Atherogenic index Mean CFB (200 mg q.d., week 12): -0.35 mmol/L
- Atherogenic index Mean percentage CFB - 12 weeks results (200 mg q.d., week 12): −7%
- Atherogenic index Median CFB - 12 weeks results (200 mg q.d., week 12): -0.30 mmol/L
- Atherogenic index Mean CFB [1]: 0.07 mmol/L
- Atherogenic index Mean percentage CFB - 12 weeks results [1]: 3%
- Atherogenic index Median CFB - 12 weeks results [1]: 0.10 mmol/L
- Atherogenic index Mean CFB [2]: -0.03 mmol/L
- Atherogenic index Mean percentage CFB - 12 weeks results [2]: 0%
- Atherogenic index Median CFB - 12 weeks results [2]: -0.10 mmol/L
- Atherogenic index Mean CFB [3]: -0.04 mmol/L
- Atherogenic index Mean percentage CFB - 12 weeks results [3]: 0%
- Atherogenic index Median CFB - 12 weeks results [3]: 0.00 mmol/L
- Atherogenic index Mean CFB [4]: -0.08 mmol/L
- Atherogenic index Mean percentage CFB - 12 weeks results [4]: −1%
- Atherogenic index Median CFB - 12 weeks results [4]: -0.10 mmol/L
- Atherogenic index Mean CFB [5]: 0.00 mmol/L
- Atherogenic index Mean percentage CFB - 12 weeks results [5]: 2%
- Atherogenic index Median CFB - 12 weeks results [5]: -0.10 mmol/L
- Atherogenic index Mean CFB [6]: -0.06 mmol/L
- Atherogenic index Mean percentage CFB - 12 weeks results [6]: 0%
- Atherogenic index Median CFB - 12 weeks results [6]: 0.00 mmol/L
- Atherogenic index Mean CFB [7]: -0.21 mmol/L
- Atherogenic index Mean percentage CFB - 12 weeks results [7]: −5%
- Atherogenic index Median CFB - 12 weeks results [7]: -0.10 mmol/L
- Atherogenic index Mean CFB [8]: -0.14 mmol/L
- Atherogenic index Mean percentage CFB - 12 weeks results [8]: −3%
- Atherogenic index Median CFB - 12 weeks results [8]: -0.10 mmol/L
- Atherogenic index Mean CFB [9]: -0.18 mmol/L
- Atherogenic index Mean percentage CFB - 12 weeks results [9]: −3%
- Atherogenic index Median CFB - 12 weeks results [9]: -0.10 mmol/L
- Atherogenic index Mean CFB [10]: -0.07 mmol/L
- Atherogenic index Mean percentage CFB - 12 weeks results [10]: −1%
- Atherogenic index Median CFB - 12 weeks results [10]: 0.00 mmol/L
- Atherogenic index Mean CFB [11]: -0.05 mmol/L
- Atherogenic index Mean percentage CFB - 12 weeks results [11]: 0%
- Atherogenic index Median CFB - 12 weeks results [11]: 0.00 mmol/L
- Atherogenic index Mean CFB (2 × 100 mg (b.i.d. group), week 2): -0.19 mmol/L
